Experimental data taken from patent US20180112193A1, “CSF1 THERAPEUTICS” (University Court Of The University Of Edinburgh, priority 2013, published 2018).

How the values were obtained:
male C57BI6 mice [1] = test: Paracetamol intoxication in mice; assay type: in vivo, mouse; conditions: CSF1 receptor blockade, 180 mg/kg via gavage; Day 3 post injury
Procedure: (§1) Forty-eight male C57BI6 mice aged 10-12 weeks underwent either 2/3 partial hepatectomy, paracetamol intoxication or chronic liver injury plus 2/3 partial hepatectomy. 2/3 partial hepatectomy was performed by ligating the left lobe and left and right median lobes. Paracetamol intoxication was performed by intraperitoneal administration of 350 mg/kg paracetamol dissolved in phosphate buffered saline (PBS). Chronic liver injury plus 2/3 partial hepatectomy was performed by eight weeks intraperitoneal carbon tetrachloride administration 1 mcl/g twice weekly dissolved in olive oil followed by ⅔ partial hepatectomy as described above. […] Control mice (n=8 per injury model) received subcutaneous PBS of appropriate volume. All mice were culled on day 4 following injury (partial hepatectomy or paracetamol intoxication).
(§2) Following a midline laparotomy the liver was excised and weighed. Liver weight to body weight ratio was calculated and expressed as a percentage. Livers were fixed in 4% formalin overnight then transferred to 70% ethanol. Livers were then embedded in paraffin blocks and 4 μm sections cut. Immunohistochemistry for Ki67 (a marker of cellular proliferation expressed throughout the cell cycle) was performed following heat mediated antigen retrieval in Tris/EDTA solution at pH9. Hepatocyte proliferation was quantified by counting ki67 positive hepatocytes in 20 high powered fields (400×) per animal and the mean calculated.
Hepatic CSF1 gene expression was assessed in mice following paracetamol intoxication (350 mg/kg paracetamol IP following overnight fast) at time points up to 4 days, showing peak CSF1 gene expression at day 2 (FIG. 14A).

male C57BI6 mice [2] = test: 2/3 partial hepatectomy in mice; assay type: in vivo, mouse
Procedure: as §1, with “All mice were culled on day 4 following injury (partial hepatectomy or paracetamol intoxication).” left out
as §2, with “calculated. […]” for “calculated.”

[3] = tested on: csf1r-EGFP (MacGreen) mice; test: Fc-CSF-1 injected subcutaneously into csf1r-EGFP mice on 4 days, sacrificed on the 5th day; assay type: in vivo, mouse; conditions: 1 mg/kg
Procedure: Mice were injected with Fc-CSF-1 subcutaneously on each of 4 days and sacrificed on the 5th day. The mice were csf1r-EGFP (MacGreen) mice on the C57BI/6 background. Tissue processing and immunohistochemistry were carried out as described in (Alikhan et al Am J. Pathol. 179, 1243-1256, 2011 and Macdonald et al Blood. 116, 3955-3963, 2010). A comparison of the effect of recombinant pig CSF-1 or Fc-CSF-1 on the proliferation of mouse bone marrow cells or the Ba/F3 CS1R reporter cell line using the assay described in Gow et al Cytokine.

Pig PK (plasma ELISA) = assay type: in vivo; conditions: weaner pigs; 0.5 mg/kg SC
Procedure: Porcine CSF-1 Fc-fusion plasma levels were detected using an in-house developed conventional sandwich ELISA utilizing commercially available antibodies. Capture antibody was Abcam ab9693 (0.3 μg/mL) and detection antibody was Rabbit anti-pig IgG (Fc) biotinylated Alpha Diagnostic 90440 (1:5000 dilution). Standard protein was generated and purified in-house (lot 2/24/11 JAS). Standards were added to each plate along with the samples resulting in an 11 point standard range of 2700 ng/mL to […]. This allowed for quantitation of each sample to a standard curve on every assay plate. Assay detection was done using Pierce High Sensitivity Streptavidin-HRP (1:10,000 dilution) and TMB Microwell Peroxidase Substrate System solution (KPL).
Weaner age barrows (<14 kg) were assigned to three treatment groups receiving a single intravenous (IV) or subcutaneous (SC) dose as follows. Three pigs received 0.5 mg/kg CSF-1 non-fusion dosed SC. Two pigs received 1.2 mg/kg CSF-1:Fc fusion dosed IV. Two pigs received 1.2 mg/kg CSF-1:Fc dosed SC. One ml plasma samples were obtained via the V. jugularis in EDTA anticoagulant tubes and placed on ice until centrifuged. The plasma was transferred to sterile tubes stored at ≤−10° C. until analysis. Serial plasma samples were obtained from each animal at pre-dose and 5 minutes, 30 minutes, 1 hour, 2 hours, 4 hours, 6 hours, 8, hours, 24 hours, 48 hours, and 72 hours post-dose. CSF-1 and CSF-1:Fc fusion protein levels were quantitated in plasma using ELISA assays.

[4] = day 2 following partial hepatectomy, vs controls

COc1ccc(COc2ccc(Cc3cnc(N)nc3N)cc2OC)cc1 [GW2580, reference compound]
hepatocyte proliferation (male C57BI6 mice [1]): impaired
liver weight to body weight ratio (male C57BI6 mice [1]): reduced
serum ALT (marker of liver injury) (male C57BI6 mice [1]): raised
serum ALT (marker of liver injury) (male C57BI6 mice [2]; CSF1 receptor blockade, 180 mg/kg via gavage): raised
hepatocyte proliferation (male C57BI6 mice [2]; CSF1 receptor blockade, 180 mg/kg via gavage, Day 3): markedly impaired
gene expression of oncostatin M (OSM) (male C57BI6 mice [2]; [4]): significant reduction
gene expression of pro-regenerative cytokine 116 (male C57BI6 mice [2]; [4]): significant reduction
urokinase receptor (UR) expression (male C57BI6 mice [2]; following partial hepatectomy, vs controls): reduction

B1: CSF-1: unmodified recombinant pig CSF-1 protein, non-fusion comparator (protein)
chain: SENCSHMIGDGHLKVLQQLIDSQMETSCQIAFEFVDQEQLTDPVCYLKKAFLQVQDILDETMRFRDNTPNANVIVQLQELSLRLNSCFTKDYEEQDKACVRTFYETPLQLLEKIKNVFNETKNLLKKDWNIFSKNCNNSFAKCSSQDVVTKPDCN
total body weight [3]: no effect
peak plasma level (Pig PK (plasma ELISA)): around 100 ng/ml
time by which completely cleared from plasma (Pig PK (plasma ELISA)): ≤ 20 h
